Measurements: PMC12196235, “Enhancing the Pharmacological Properties of Triterpenes Through Acetylation: An Anticancer and Antioxidant Perspective” (Molecules, 2025)
Values joined by “and” are separate entries in the source; they are usually repeats but may differ in a detail not shown here. Identical values can stand only once. Like-named read-outs stand apart in the source and are kept apart here.

Key:
[1] = test system: HeLa (human cervical epithelioid carcinoma); test: MTT assay, HeLa; format: cell-based; conditions: for IC50: MTT assay, HeLa, read-out: IC50 (±SD), HeLa; for Selectivity index (SI), HeLa: IC50 HDF / IC50 HeLa
Experimental: (§1) All the cell lines and mediums were obtained from the American Type Culture Collection (ATCC) supplied by LGC-Standards (Lomianki, Poland). Human cancer cell lines were cultured as follows: HeLa (human cervix carcinoma) and KB (human oral squamous carcinoma) lines were cultured in DMEM (Dulbecco’s Modified Eagle’s Medium); MCF-7 (human breast carcinoma) and A-549 (human lung carcinoma) were cultured in RPMI 1640 medium; PC-3 (human prostate carcinoma) was cultured in F-12K medium; SKOV-3 (human ovarian cystadenocarcinoma) was cultured in McCoy’s modified medium; HDF (human normal dermal fibroblasts) was cultured in Fibroblast Basal Medium. Each medium was supplemented with 10% fetal bovine serum, 1% L- glutamine and 1% penicillin/streptomycin solution. The cell lines were kept in an incubator at 37 °C.
(§2) All the tested cell lines (HeLa, KB, MCF-7, A-549, PC-3, SKOV-3 and HDF) were subjected to MTT assay. In short, this assay is based on the reaction between mitochondria enzymes (dehydrogenases) of tested cell lines and 3-(4,5-dimethylthiazol-2-yl)-2,5-diphenyltetrazolium bromide (MTT). The final product of this reaction gives violet formazan crystals. The number of live cells is proportional to the amount of formazan and is represented by the violet dye reagent. The details of the experiments are given in [19].

[2] = test system: KB (human oral squamous carcinoma); test: MTT assay, KB; format: cell-based; conditions: for IC50: MTT assay, KB; for Selectivity index (SI), KB: IC50 HDF / IC50 KB
Experimental: as §1, §2

[3] = test system: MCF-7 (human breast carcinoma); test: MTT assay, MCF-7; format: cell-based; conditions: for IC50: MTT assay, MCF-7, read-out: IC50 (±SD), MCF-7; for Selectivity index (SI), MCF-7: IC50 HDF / IC50 MCF-7
Experimental: as §1, §2

[4] = test system: A-549 (human lung carcinoma); test: MTT assay, A-549; format: cell-based; conditions: for IC50: MTT assay, A-549, read-out: IC50 (±SD), A-549; for Selectivity index (SI), A-549: IC50 HDF / IC50 A-549
Experimental: as §1, §2

[5] = test system: PC-3 (human prostate carcinoma); test: MTT assay, PC-3; format: cell-based; conditions: for IC50: MTT assay, PC-3, read-out: IC50 (±SD), PC-3; for Selectivity index (SI), PC-3: IC50 HDF / IC50 PC-3
Experimental: as §1, §2

[6] = test system: SKOV-3 (human ovarian carcinoma); test: MTT assay, SKOV-3; format: cell-based; conditions: for IC50: MTT assay, SKOV-3, read-out: IC50 (±SD), SKOV-3; for Selectivity index (SI), SKOV-3: IC50 HDF / IC50 SKOV-3
Experimental: as §1, §2

[7] = test system: HDF (human dermal fibroblasts); test: MTT assay, normal HDF; format: cell-based; conditions: read-out: IC50 (±SD), HDF
Experimental: as §1, §2

[8] = test system: HeLa, KB, MCF-7, A-549, PC-3 and SKOV-3; test: MTT assay, summary over the cancer cell lines; format: cell-based, human; conditions: for cytotoxic activity class: classification by IC50 (good ≤ 10 μM, moderate 10–30 μM, ref 83)
Experimental: as §1, §2

[9] = test system: SKOV-3; test: Apoptosis assay (Cell Death Detection ELISA Plus), SKOV-3; format: cell-based, human; conditions: SKOV-3, 4 h incubation, enrichment of mono- and oligonucleosomes vs negative control
Experimental: (§3) The induction of apoptosis by tested compounds was determined with Cell Death Detection ELISA Plus from Roche Diagnostics GmbH (Mannheim, Germany).
(§4) Cell Death Detection ELISA Plus is an enzyme immunoassay for determining cytoplasmic histone-associated DNA fragments (mono- and […]) after induced cell death. Cells (10^4) were pipetted into wells of 96-well plates, and test compounds were added at final concentrations of 0.1, 1.0 and 10.0 µg × mL^−1. Cells incubated in the absence of test compounds served as negative controls. After 4 h of incubation, cells were harvested by centrifugation of the plates for 10 min at 200× g. Supernatants were removed carefully, and cell pellets were resuspended in 200 µL of cell lysis buffer and incubated for 30 min at room temperature. After centrifugation of the plates (10 min at 200× g), 20 µL of cell lysates was transferred in duplicate into wells of provided streptavidin-coated microplates. Then, 80 µL of the immunoreagent containing a mixture of anti-histone-biotin monoclonal antibody and anti-DNA-peroxidase monoclonal antibody was added to each well. The microplates were covered with a provided adhesive foil and incubated for 2 h at room temperature. Thereafter, the solution in the wells was removed by tapping the microplate. The wells were rinsed three times with incubation buffer, and 100 µL of substrate (2,2′-azino-bis [3-ethylbenzothiazoline-6-sulphonic acid], ABTS) was added to each well. After 10–20 min, 100 µL of ABTS stop solution was pipetted to each well, and the absorbance was read at 405 nm (test wavelength) and 490 nm (reference wavelength). The apoptotic index was calculated based on the enrichment of mono- and oligonucleosomes according to the following equation:apoptotic index = [{A405(sample) − A490(sample)}/{A405(negative control) − A490(negative control)}]

[10] = test system: PC-3; test: Apoptosis assay (Cell Death Detection ELISA Plus), PC-3; format: cell-based, human; conditions: PC-3, 4 h incubation, enrichment of mono- and oligonucleosomes vs negative control
Experimental: as §3, §4

[11] = CUPRAC antioxidant assay; conditions: calculated from Trolox standard curve
Experimental: (§5) The results are presented as % inhibition of the copper(II) ions and Trolox equivalent calculated from the standard curve (Figure 9) and as % inhibition of the DPPH radical and Trolox equivalent, calculated from the standard curve (Figure 10).
(§6) The CUPRAC reagent (7.5 mM ethanolic 96% neocuproine solution, 10 mM CuCl2 × H2O solution and an ammonium acetate buffer of pH 7.0) and DPPH reagent (2,2-diphenyl-1-picrylhydrazyl 0.2 mM solution) were applied.
(§7) The CUPRAC method measures the reducing power of a sample by quantifying its ability to convert the Cu-neocuproine reagent complex to the Cu(I) form. In contrast, the DPPH assay relies on the ability of an antioxidant to donate a hydrogen atom or an electron to the stable DPPH radical, resulting in its reduction and subsequent color change. The results are presented as % inhibition of the copper(II) ions and Trolox equivalent calculated from the standard curve (Figure 9) and as % inhibition of the DPPH radical and Trolox equivalent, calculated from the standard curve (Figure 10). The spectroscopic detection in CUPRAC and DPPH assays was conducted with Synergy H1 Multi-Mode Microplate Reader (BioTek Instruments, Inc., Winooski, VT, USA). The details of the experiments are given in [102].

[12] = DPPH antioxidant assay; conditions: calculated from Trolox standard curve
Experimental: as §5, §6, §7

[13] = test system: KB (human oral squamous carcinoma); conditions: ref 104; cited from earlier work
[14] = test system: Hep-G2 (human hepatocellular carcinoma); conditions: ref 105; read-out: IC50 (Hep-G2); cited from earlier work
[15] = test system: HT-29 (human colorectal adenocarcinoma); conditions: ref 105; read-out: IC50 (HT-29); cited from earlier work
[16] = test system: A-549 (human lung carcinoma); conditions: ref 104; read-out: IC50 (A-549); cited from earlier work
[17] = test system: KB-VIN (multidrug resistant human epidermoid carcinoma); conditions: ref 104; cited from earlier work
[18] = test system: B16-F10 (murine melanoma); conditions: cited from earlier work
[19] = test system: RAW 264.7; conditions: ref 106; cited from earlier work
[20] = test system: J774A.1 (macrophage-like cell line); conditions: ref 106; cited from earlier work

| IC50 [1] [µM] | IC50 [2] [µM] | Compound | IC50 ([1]; Homo sapiens) [µM] | Selectivity index (SI), HeLa [1] | IC50 ([2]; Homo sapiens) [µM] | Selectivity index (SI), KB [2] | IC50 ([3]; Homo sapiens, MCF7) [µM] | Selectivity index (SI), MCF-7 [3] | IC50 ([4]; Homo sapiens, A549) [µM] | Selectivity index (SI), A-549 [4] | IC50 ([5]; Homo sapiens) [µM] | Selectivity index (SI), PC-3 [5] | IC50 ([6]; Homo sapiens, SK-OV-3) [µM] | Selectivity index (SI), SKOV-3 [6] | IC50 ([7]; Homo sapiens, Fibroblast) [µM] | cytotoxic activity class [8] | Apoptotic index (AI), SKOV-3 [9] | Apoptotic index (AI), PC-3 [10] | Trolox Equivalent, CUPRAC Assay [11] | Trolox Equivalent, DPPH Assay [12] | further results |
| --- | --- | --- | --- | --- | --- | --- | --- | --- | --- | --- | --- | --- | --- | --- | --- | --- | --- | --- | --- | --- | --- |
| – | – | CC(=O)O[C@H]1CC[C@]2(C)[C@H]3CC=C4[C@@H]5CC(C)(C)CC[C@]5(C(=O)O)CC[C@@]4(C)[C@]3(C)CC[C@H]2C1(C)C [1b, 3-O-Acetyloleanolic acid] | 0.24 | 0.79 | 0.36 | 0.53 | 1.86 | 0.10 | 0.24 | 0.79 | 0.11 | 1.73 | 0.09 | 2.11 | 0.19 | very high cytotoxic activity | 6.79 (0.16) | 6.90 (0.04) | 0.2199 mg/mL and 0.2199 ± 0.00657 mg/mL | 0.0143 ± 0.000592 mg/mL | IC50 [13]: 7.6 µM; IC50 [14]: 104 µM; IC50 [15]: 148 µM; IC50 [16]: 5.8 µM; IC50 [17]: 7.6 µM; IC50 ([18]; ref 105): 64.7 µM; IC50 ([18]; ref 107): 64.7 µM; IC50 [19]: 13.8 µM; IC50 [20]: 16.8 µM |
| – | – | CC(=O)OCC12CCC(C)(C)CC1C1=CCC3C4(C)CCC(OC(C)=O)C(C)(C)C4CCC3(C)C1(C)CC2 (stereo not shown) [2b, 3,28-di-O-Acetylerythrodiol] | 70.3 | 0.75 | 50 | 1.06 | 61.6 | 0.86 | 51.6 | 1.03 | 25.1 | 2.11 | 25.5 | 2.08 | 53.1 | – | – | – | 0.2402 mg/mL and 0.2402 ± 0.00995 mg/mL | 0.00313 ± 0.00013 mg/mL | – |
| – | – | CC1(C)CC[C@]23CC[C@]4(C)[C@H](CC[C@@H]5[C@@]6(C)CC[C@H](O)C(C)(C)[C@@H]6CC[C@]54C)[C@H]2[C@H]1OC3 [3a, allobetulin] | 49.4 | 0.97 | 45.3 | 1.06 | 71.1 | 0.68 | 51.7 | 0.93 | 20.2 | 2.39 | 20.9 | 2.30 | 48.2 | – | 5.78 (0.01) | 5.27 (0.01) | 0.08248 mg/mL and 0.08248 ± 0.005 mg/mL | 0.01677 ± 0.000694 mg/mL | IC50 ([8]; Homo sapiens, MTT assay, range over tested cancer cell lines): 20 to 70 µM |
| > 100 | > 100 | CC(=O)OC1CCC2(C)C(CCC3(C)C2CCC2C4C5OCC4(CCC5(C)C)CCC23C)C1(C)C (stereo not shown) [3b, 3-O-Acetylallobetulin] | – | – | – | – | – | – | – | – | – | – | – | – | – | – | – | – | 0.03212 mg/mL and 0.03212 ± 0.00166 mg/mL | 0.00182 mg/mL and 0.00182 ± 0.000755 mg/mL | IC50 [3]: > 100 µM; IC50 [4]: > 100 µM; IC50 [5]: 52.2 µM; IC50 [6]: 53.1 µM; IC50 [7]: 62 µM |
| – | – | C=C(C)C1CCC2(C(=O)O)CCC3(C)C(CCC4C5(C)CCC(OC(C)=O)C(C)(C)C5CCC43C)C12 (stereo not shown) [4b, 3-O-Acetylbetulinic acid] | 1.62 | 1.77 | 1.5 | 1.92 | 1.5 | 1.92 | 1.23 | 2.34 | 0.93 | – | 1.03 | – | 2.88 | very high cytotoxic activity | 7.81 (0.02) | 7.09 (0.01) | 0.1999 mg/mL and 0.1999 ± 0.0015 mg/mL | 0.00376 ± 0.000156 mg/mL | – |
| 72.6 | 72.5 | C=C(C)[C@@H]1CC[C@]2(C)CC[C@]3(C)[C@H](CC[C@@H]4[C@@]5(C)CC[C@H](OC(C)=O)C(C)(C)[C@@H]5CC[C@]43C)[C@@H]12 [6b, 3-O-Acetylolupeol] | – | – | – | – | – | – | – | – | – | – | – | – | – | – | – | – | 0.1349 ± 0.00514 mg/mL | 0.00348 ± 0.000144 mg/mL | IC50 [3]: 50 µM; IC50 [4]: 56.2 µM; IC50 [5]: 22.2 µM; IC50 [6]: 21.1 µM; IC50 [7]: 35 µM |
